Test results: patent EP0642504B1 (priority 1991, dated 1993)
Marks after values point to notes of the source that are not given here.

Assays:
PAF-Induced Paw Edema = experiment: PAF-induced paw edema (water displacement); type: in vivo, CD-1 female mice; conditions: for percent inhibition of paw edema: oral, 15 min after PAF (1.0 µg s.c.), vs vehicle treated controls
Procedure: A second model, in which edema is induced by platelet activating factor (PAF), was used to evaluate activity.
(§1) The conditions were based on those reported previously [Calhoun et al., ibid.]. […] PAF (1.0 µg) or arachidonic acid (1.0 mg) dissolved in 50 µl of 5% ethanol in saline, were injected s.c. into the plantar surface of the right hind paw of CD-1 female mice (20-25 g) obtained from Charles River Labs. The mice were under ether anesthesia during this procedure. The volume of the right foot was measured to the level of the lateral malleous by water displacement before treatment and 15 min after PAF injection or 30 min after archidonate injection. The change in paw volume was calculated for each mouse and the significance for each group was determined by a paired t test analysis.

peritoneal leukocytes = experiment: Leukocyte adhesion assay, peritoneal cells collected after oral dosing; type: in vivo, CD-1 mice
Procedure: Leukocytes are thought to be major contributors to the inflammatory response and their ability in this regard is reflected by their adhesiveness to a variety of substrates [Audette, C.A., et al., Life Sci., 47, 753 (1990)].
The details of the leukocytes adhesion assay have been previously reported [Audette et al., ibid.]. In brief, peritoneal cells from femals CD-1 mice (20-25 g) were collected at 90 min following oral administration of the drug or vehicle (50 µl peanut oil). Cells from each treatment group (N=3) were pooled and equal numbers aliquoted into six culture dish wells (1.9 cm^2 area). After incubation for 18-20 hours, non-adhering cells were removed and the remaining cell monolayer quantitated by DNA measurement.

mouse [1] = experiment: Mouse hot plate test (55°C) for antinociception; type: in vivo
Procedure: In the hot plate test for analgesia an aluminum surface was maintained at 55 ± 1°C by circulating water through passages in the metal. A clear plastic cylinder 18 cm in diameter and 26 cm high was placed on the surface to prevent escape. The end point was taken when the mouse either performed a hind paw lick or jumped off the surface; in no case were the animals kept for more than 30 secs on the plate. Mice were never used more than one time; control values were always measured at 11 a.m. and test values at 2 p.m. The drugs were administered orally 90 min before the hot plate test. The percent change in response time (latency) was calculated by comparing the mean of the control values with the mean of the test values and statistical signficance determined by a paired t-test analysis using software (Statview, 512) from Brainpower, Inc., Calabasas, Ca.

[2] = test system: picrotoxin induced lethality; experiment: Protection against picrotoxin induced lethality; type: in vivo, Balb/c male mice; conditions: drug 10 mg/kg, 120 min before picrotoxin (8 mg/kg) s.c.; no drug 0/17
Text: (§2) The present compounds are active in several tests generally used to indicate neuroprotection.

[3] = test system: N-methyl-D-aspartate (NMDA) induced lethality; experiment: Protection against NMDA induced lethality; type: in vivo, Balb/c male mice; conditions: drug 10 mg/kg, 90 min before NMDA (125 mg/kg) s.c.; no drug 0/20
Text: as §2

[4] = test system: forebrain ischemia (unilateral occlusion); experiment: Forebrain ischemia (unilateral occlusion); type: in vivo; conditions: mongolian gerbils
Text: as §2

[5] = test system: Arachidonic Acid-Induced Paw Edema; experiment: Arachidonic acid-induced paw edema (water displacement); type: in vivo, CD-1 female mice; conditions: for percent inhibition of paw edema: oral, 30 min after arachidonic acid (1.0 mg s.c.), vs vehicle treated controls
Procedure: The induction of paw edema in rodents by injection of arachidonic acid has been used as an experimental model for inflammation [Calhoun, W., et al., Agents and Actions, 21, 306 (1987)]. Prior administration of non-steroidal anti-inflammatory drugs (NSAIDs) in many cases leads to a dose related inhibition of the edematous response which may be considered a predictor of clinical efficacy.
as §1

mouse [6] = experiment: Ring test for cataleptic effects; type: in vivo; conditions: 5-min test period, vehicle 7.7 ± 4.4
Procedure: The lack of CNS activity for the compounds described herein may be seen from the data shown in Table V. This was measured by the so-called "ring test" [Pertwee, R.G., et al., J. Pharmacol., 46, 753 (1972)] in which the cataleptic effects of cannabinoids can be quantitated. The compounds produced little or no response when compared with the parent drug.
The cataleptic response was measured using the ring test. Mice were placed on a horizontal wire ring 5.5 cm in diameter, which was attached to a 16 cm vertical rod. The hind paws and fore paws were placed at opposite sides of the ring. It is important that the ambient temperature is maintained at 30°C and that the environment be free of auditory stimuli and bright lights. The criteria for immobility are detailed by Pertwee. The response is calculated as the fraction of time the mouse is immobile over a 5-min test period. Measurements were always done between 2 and 4 p.m. and the animals were used only once.

intraocular pressure = experiment: Reduction of intraocular pressure (anti-glaucoma activity); type: in vivo, rabbits; conditions: 50 µl drop of a 1% emulsion into the rabbit eye
Procedure: Reduction of intraocular pressure in rabbits was determined by the addition of a 50 µl drop of a 1% emulsion of the cannabinoid into the rabbit eye. This test is a measure of anti-glaucomatic activity.

[7] = dose 0.05 mg/kg oral, cells collected 90 min after administration
[8] = dose 0.05 mg/kg oral, cells collected 90 min after administration, 18-20 hours incubation
[9] = dose 0.10 mg/kg oral, cells collected 90 min after administration
[10] = dose 0.10 mg/kg oral, cells collected 90 min after administration, 18-20 hours incubation
[11] = dose 0.50 mg/kg oral, cells collected 90 min after administration
[12] = dose 0.50 mg/kg oral, cells collected 90 min after administration, 18-20 hours incubation
[13] = dose 1.00 mg/kg oral, cells collected 90 min after administration
[14] = dose 1.00 mg/kg oral, cells collected 90 min after administration, 18-20 hours incubation
[15] = dose 0.25 mg/kg orally 90 min before the hot plate test
[16] = dose 0.50 mg/kg orally 90 min before the hot plate test
[17] = dose 1.0 mg/kg orally 90 min before the hot plate test

Compound	percent inhibition of paw edema (PAF-Induced Paw Edema; dose 0.5 mg/kg)	adhering cells, percent of control (peritoneal leukocytes; [7])	number of adhering cells x 10^-6 ± S.D. (peritoneal leukocytes; [8])	adhering cells, percent of control (peritoneal leukocytes; [9])	number of adhering cells x 10^-6 ± S.D. (peritoneal leukocytes; [10])	adhering cells, percent of control (peritoneal leukocytes; [11])	number of adhering cells x 10^-6 ± S.D. (peritoneal leukocytes; [12])	adhering cells, percent of control (peritoneal leukocytes; [13])	number of adhering cells x 10^-6 ± S.D. (peritoneal leukocytes; [14])	percent change in latency (mouse [1]; [15])	percent change in latency (mouse [1]; [16])	percent change in latency (mouse [1]; [17])	Survival rate (number of survivors out of total number of animals used) [2]	Survival rate (number of survivors out of total number of animals used) [3]	protection against forebrain ischemia [4]	also measured
CCCCCCC(C)(C)c1cc(O)c2c(c1)OC(C)(C)[C@H]1CC=C(CO)C[C@H]21 [HU-211, reference compound]	37.5%	124% of control	1.09±0.08 x 10^-6	50% of control	0.44±0.03 x 10^-6	73% of control	0.64±0.06 x 10^-6	67% of control	0.59±0.06 x 10^-6	30.0(5)* percent	72.5(5)*** percent	-10.2(5) percent	6/10	11/16	protect against forebrain ischemia	percent inhibition of paw edema (PAF-Induced Paw Edema; dose 1.0 mg/kg): 21.9%
CCCCCCC(C)(C)c1cc(O)c2c(c1)OC(C)(C)[C@H]1CC=C(C(=O)O)C[C@H]21 [HU-235]	60.1* percent	102% of control	1.29±0.05 x 10^-6	110% of control	1.38±0.17 x 10^-6	116% of control	1.46±0.05 x 10^-6	56% of control	0.70±0.12 x 10^-6	61.5(17)** percent	51.7(8)* percent	14.7(5) percent	8/12	7/10	protect against forebrain ischemia	reduction of paw edema (result in words) ([5]; arachidonic acid model, summary of Table 1): effective in reducing paw edema; percent inhibition of paw edema ([5]; dose 0.050 mg.kg): 42.1 (N.S.) percent; percent inhibition of paw edema ([5]; dose 0.100 mg.kg): 65.8* percent; percent inhibition of paw edema ([5]; dose 0.250 mg.kg): 52.6* percent; percent inhibition of paw edema ([5]; dose 0.55 mg.kg): 47.4%; percent inhibition of paw edema (PAF-Induced Paw Edema; dose 0.05 mg/kg): 44.4 (N.S.) percent; percent inhibition of paw edema (PAF-Induced Paw Edema; dose 0.10 mg/kg): 38.7* percent; percent inhibition of paw edema (PAF-Induced Paw Edema; dose 0.25 mg/kg): 31.9* percent; activity against PAF-induced edema (result in words) (PAF-Induced Paw Edema; summary of Table II): active; adhering cells, percent of control (peritoneal leukocytes; dose 0.01 mg/kg oral, cells collected 90 min after administration): 106% of control; number of adhering cells x 10^-6 ± S.D. (peritoneal leukocytes; dose 0.01 mg/kg oral, cells collected 90 min after administration, 18-20 hours incubation): 1.34±0.14 x 10^-6; percent change in latency (mouse [1]; dose 0.025 mg/kg orally 90 min before the hot plate test): 10.3(5) percent; percent change in latency (mouse [1]; dose 0.050 mg/kg orally 90 min before the hot plate test): 61.7(5)* percent; percent change in latency (mouse [1]; dose 0.10 mg/kg orally 90 min before the hot plate test): 49.5(20)* percent; Response ± SD (means of the fraction of time the mice remained immobile) (mouse [6]; dose 0.25 mg/kg): 12.3 ± 10.3; Response ± SD (means of the fraction of time the mice remained immobile) (mouse [6]; dose 0.5 mg/kg): 13.8 ± 7.9; Response ± SD (means of the fraction of time the mice remained immobile) (mouse [6]; dose 1.0 mg/kg): 10.4 ± 10.6; Response ± SD (means of the fraction of time the mice remained immobile) (mouse [6]; dose 4.0 mg/kg): 8.7 ± 5.6; Reduction of intraocular pressure (intraocular pressure): Significant reduction
CCCCCc1cc(O)c2c(c1)OC(C)(C)[C@@H]1CCC(C)=C[C@@H]21 [Δ^1-THC, reference compound]	–	–	–	–	–	–	–	–	–	–	–	–	–	–	–	Response ± SD (means of the fraction of time the mice remained immobile) (mouse [6]; dose 40 mg/kg): 48.9 ± 16
CCCCCc1cc(O)c2c(c1)OC(C)(C)[C@@H]1CC=C(C(=O)O)C[C@@H]21 [Δ^6-THC-7-oic acid, reference compound]	–	–	–	–	–	–	–	–	–	–	–	–	–	–	–	percent inhibition of paw edema (PAF-Induced Paw Edema; dose 40.0 mg/kg): 50.2%
THC-7-oic Acid [reference compound]	–	–	–	–	–	–	–	–	–	–	–	–	–	–	–	number of adhering cells x 10^-6 ± S.D. (peritoneal leukocytes; dose 20 mg/kg oral, cells collected 90 min after administration, own control 0.81±0.03): 0.67±0.02 x 10^-6; adhering cells, percent of control (peritoneal leukocytes; dose 20 mg/kg oral, own control 0.81±0.03): 90.6% of control; number of adhering cells x 10^-6 ± S.D. (peritoneal leukocytes; dose 40 mg/kg oral, cells collected 90 min after administration, own control 0.81±0.03): 0.55±0.22 x 10^-6; adhering cells, percent of control (peritoneal leukocytes; dose 40 mg/kg oral, own control 0.81±0.03): 67.9% of control
